Assay results as given in patent US20230085307A1, “PYRIDAZINONE COMPOUND AND HERBICIDE” (NISSAN CHEMICAL CORPORATION, priority 2019, published 2023).

Experiments:
barnyard grass [1] = assay: Test Example 3: herbicidal effect by foliage application, Wagner pot (Table 18, symbol H); format: in vivo, barnyard grass (Echinochloa crus-galli)
How it was run: (§1)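 Plants were sown in alluvial soil held under 0.1–0.5 cm standing water and grown 14 days in a greenhouse at 25–30 °C. An emulsifiable formulation, water-diluted to the set dose, was then sprayed onto the foliage, and effects were scored three weeks later using previously defined criteria.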

Chinese sprangletop = assay: Test Example 3: herbicidal effect by foliage application, Wagner pot (Table 18, symbol D); format: in vivo, chinese sprangletop (Leptochloa chinensis)
How it was run: as §1

rice flat sedge = assay: Test Example 3: herbicidal effect by foliage application, Wagner pot (Table 18, symbol E); format: in vivo, rice flat sedge (Cyperus iria)
How it was run: as §1

southern crabgrass [2] = assay: Test Example 4: herbicidal effect by soil treatment (Table 19, symbol F); format: in vivo, southern crabgrass (Digitaria ciliaris)
How it was run: (§2)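 In this soil treatment, the formulated compound reached the seeds only through the soil: seeds were buried about 1.5 cm deep in sterilized diluvial soil, then the diluted emulsion was sprayed over the surface. After three weeks at 25° C. to 30° C. in a greenhouse, effects were graded on criteria from an earlier test.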

green foxtail [3] = assay: Test Example 4: herbicidal effect by soil treatment (Table 19, symbol G); format: in vivo, green foxtail (Setaria viridis)
How it was run: as §2

barnyard grass [4] = assay: Test Example 4: herbicidal effect by soil treatment (Table 19, symbol H); format: in vivo, barnyard grass (Echinochloa crus-galli)
How it was run: as §2

wild oat [5] = assay: Test Example 4: herbicidal effect by soil treatment (Table 19, symbol I); format: in vivo, wild oat (Avena fatua)
How it was run: as §2

blackgrass [6] = assay: Test Example 4: herbicidal effect by soil treatment (Table 19, symbol J); format: in vivo, blackgrass (Alopecurus myosuroides)
How it was run: as §2

Italian ryegrass [7] = assay: Test Example 4: herbicidal effect by soil treatment (Table 19, symbol K); format: in vivo, Italian ryegrass (Lolium multiflorum)
How it was run: as §2

windgrass = assay: Test Example 4: herbicidal effect by soil treatment (Table 19, symbol L); format: in vivo, windgrass (Apera spica-venti)
How it was run: as §2

velvetleaf [8] = assay: Test Example 4: herbicidal effect by soil treatment (Table 19, symbol M); format: in vivo, velvetleaf (Abutilon theophrasti)
How it was run: as §2

redroot pigweed [9] = assay: Test Example 4: herbicidal effect by soil treatment (Table 19, symbol N); format: in vivo, redroot pigweed (Amaranthus retroflexus)
How it was run: as §2

lambsquarters [10] = assay: Test Example 4: herbicidal effect by soil treatment (Table 19, symbol O); format: in vivo, lambsquarters (Chenopodium album)
How it was run: as §2

chickweed [11] = assay: Test Example 4: herbicidal effect by soil treatment (Table 19, symbol P); format: in vivo, common chickweed (Stellaria media)
How it was run: as §2

persian speedwell [12] = assay: Test Example 4: herbicidal effect by soil treatment (Table 19, symbol R); format: in vivo, Persian speedwell (Veronica persica)
How it was run: as §2

southern crabgrass [13] = assay: Test Example 5: herbicidal effect by foliage application, plastic box (Table 20, symbol F); format: in vivo, southern crabgrass (Digitaria ciliaris); conditions: foliage application after 14-day growth, evaluated three weeks after application
How it was run: (§3)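 Plants were sown into sterilized diluvial soil under about 1.5 cm cover and kept in a greenhouse at 25° C. to 30° C. Fourteen days on, foliage received an even spray of the diluted emulsion. Herbicidal or crop effect was judged three weeks afterwards.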

green foxtail [14] = assay: Test Example 5: herbicidal effect by foliage application, plastic box (Table 20, symbol G); format: in vivo, green foxtail (Setaria viridis); conditions: foliage application after 14-day growth, evaluated three weeks after application
How it was run: as §3

barnyard grass [15] = assay: Test Example 5: herbicidal effect by foliage application, plastic box (Table 20, symbol H); format: in vivo, barnyard grass (Echinochloa crus-galli); conditions: foliage application after 14-day growth, evaluated three weeks after application
How it was run: as §3

wild oat [16] = assay: Test Example 5: herbicidal effect by foliage application, plastic box (Table 20, symbol I); format: in vivo, wild oat (Avena fatua); conditions: foliage application after 14-day growth, evaluated three weeks after application
How it was run: as §3

blackgrass [17] = assay: Test Example 5: herbicidal effect by foliage application, plastic box (Table 20, symbol J); format: in vivo, blackgrass (Alopecurus myosuroides); conditions: foliage application after 14-day growth, evaluated three weeks after application
How it was run: as §3

Italian ryegrass [18] = assay: Test Example 5: herbicidal effect by foliage application, plastic box (Table 20, symbol K); format: in vivo, Italian ryegrass (Lolium multiflorum); conditions: foliage application after 14-day growth, evaluated three weeks after application
How it was run: as §3

velvetleaf [19] = assay: Test Example 5: herbicidal effect by foliage application, plastic box (Table 20, symbol M); format: in vivo, velvetleaf (Abutilon theophrasti); conditions: foliage application after 14-day growth, evaluated three weeks after application
How it was run: as §3

redroot pigweed [20] = assay: Test Example 5: herbicidal effect by foliage application, plastic box (Table 20, symbol N); format: in vivo, redroot pigweed (Amaranthus retroflexus); conditions: foliage application after 14-day growth, evaluated three weeks after application
How it was run: as §3

lambsquarters [21] = assay: Test Example 5: herbicidal effect by foliage application, plastic box (Table 20, symbol O); format: in vivo, lambsquarters (Chenopodium album); conditions: 320 g/ha, foliage application after 14-day growth, evaluated three weeks after application
How it was run: as §3

chickweed [22] = assay: Test Example 5: herbicidal effect by foliage application, plastic box (Table 20, symbol P); format: in vivo, common chickweed (Stellaria media); conditions: foliage application after 14-day growth, evaluated three weeks after application
How it was run: as §3

persian speedwell [23] = assay: Test Example 5: herbicidal effect by foliage application, plastic box (Table 20, symbol R); format: in vivo, Persian speedwell (Veronica persica); conditions: foliage application after 14-day growth, evaluated three weeks after application
How it was run: as §3

[24] = amount of applied herbicide 320 g/ha
[25] = amount of applied herbicide 272 g/ha

Cc1nn(C)c(=O)c(-c2c(-c3ccc(F)cc3)sc3c(Cl)cccc23)c1O [4-015]
herbicidal effect on barnyard grass (H) (barnyard grass [1]; 320 g/ha): 3 (Herbicidal rate of 40% or more and less than 70%) | herbicidal effect on Chinese sprangletop (D) (Chinese sprangletop; 320 g/ha): 3 (Herbicidal rate of 40% or more and less than 70%) | herbicidal effect on rice flat sedge (E) (rice flat sedge; 320 g/ha): 5 (Herbicidal rate of 90% or more (almost completely withered)) | Herbicidal effect by soil treatment, F: southern crabgrass (southern crabgrass [2]; [24]): 0 (Herbicidal rate of 5% or less (almost no effect)) | Herbicidal effect by soil treatment, G: green foxtail (green foxtail [3]; [24]): 0 (Herbicidal rate of 5% or less (almost no effect)) | Herbicidal effect by soil treatment, H: barnyard grass (barnyard grass [4]; [24]): 0 (Herbicidal rate of 5% or less (almost no effect)) | Herbicidal effect by soil treatment, I: wild oat (wild oat [5]; [24]): 0 (Herbicidal rate of 5% or less (almost no effect)) | Herbicidal effect by soil treatment, J: blackgrass (blackgrass [6]; [24]): 0 (Herbicidal rate of 5% or less (almost no effect)) | Herbicidal effect by soil treatment, K: Italian ryegrass (Italian ryegrass [7]; [24]): 0 (Herbicidal rate of 5% or less (almost no effect)) | Herbicidal effect by soil treatment, L: windgrass (windgrass; [24]): 0 (Herbicidal rate of 5% or less (almost no effect)) | Herbicidal effect by soil treatment, M: velvetleaf (velvetleaf [8]; [24]): 0 (Herbicidal rate of 5% or less (almost no effect)) | Herbicidal effect by soil treatment, N: redroot pigweed (redroot pigweed [9]; [24]): 2 (Herbicidal rate of 20% or more and less than 40%) | Herbicidal effect by soil treatment, O: lambsquarters (lambsquarters [10]; [24]): 3 (Herbicidal rate of 40% or more and less than 70%) | Herbicidal effect by soil treatment, P: chickweed (chickweed [11]; [24]): 0 (Herbicidal rate of 5% or less (almost no effect)) | Herbicidal effect by soil treatment, R: persian speedwell (persian speedwell [12]; [24]): 0 (Herbicidal rate of 5% or less (almost no effect)) | herbicidal effect on F: southern crabgrass (evaluation grade 0-5) (southern crabgrass [13]; 320 g/ha): 0 (Herbicidal rate of 5% or less (almost no effect)) | herbicidal effect on G: green foxtail (evaluation grade 0-5) (green foxtail [14]; 320 g/ha): 0 (Herbicidal rate of 5% or less (almost no effect)) | herbicidal effect on H: barnyard grass (evaluation grade 0-5) (barnyard grass [15]; 320 g/ha): 0 (Herbicidal rate of 5% or less (almost no effect)) | herbicidal effect on I: wild oat (evaluation grade 0-5) (wild oat [16]; 320 g/ha): 0 (Herbicidal rate of 5% or less (almost no effect)) | herbicidal effect on J: blackgrass (evaluation grade 0-5) (blackgrass [17]; 320 g/ha): 0 (Herbicidal rate of 5% or less (almost no effect)) | herbicidal effect on K: Italian ryegrass (evaluation grade 0-5) (Italian ryegrass [18]; 320 g/ha): 0 (Herbicidal rate of 5% or less (almost no effect)) | herbicidal effect on M: velvetleaf (evaluation grade 0-5) (velvetleaf [19]; 320 g/ha): 1 (Herbicidal rate of 5% or more and less than 20%) | herbicidal effect on N: redroot pigweed (evaluation grade 0-5) (redroot pigweed [20]; 320 g/ha): 1 (Herbicidal rate of 5% or more and less than 20%) | herbicidal effect on O: lambsquarters (evaluation grade 0-5) (lambsquarters [21]): 1 (Herbicidal rate of 5% or more and less than 20%) | herbicidal effect on P: chickweed (evaluation grade 0-5) (chickweed [22]; 320 g/ha): 5 (Herbicidal rate of 90% or more (almost completely withered)) | herbicidal effect on R: persian speedwell (evaluation grade 0-5) (persian speedwell [23]; 320 g/ha): 4 (Herbicidal rate of 70% or more and less than 90%)

CCCC(=O)Oc1c(C)nn(C)c(=O)c1-c1c(-c2ccccc2OC(F)F)sc2cc(F)c(F)cc12 [5-022]
herbicidal effect on barnyard grass (H) (barnyard grass [1]; 272 g/ha): 4 (Herbicidal rate of 70% or more and less than 90%) | herbicidal effect on Chinese sprangletop (D) (Chinese sprangletop; 272 g/ha): 3 (Herbicidal rate of 40% or more and less than 70%) | herbicidal effect on rice flat sedge (E) (rice flat sedge; 272 g/ha): 3 (Herbicidal rate of 40% or more and less than 70%) | F: southern crabgrass, herbicidal effect grade (southern crabgrass [2]; [25]): 1 (Herbicidal rate of 5% or more and less than 20%) | G: green foxtail, herbicidal effect grade (green foxtail [3]; [25]): 3 (Herbicidal rate of 40% or more and less than 70%) | H: barnyard grass, herbicidal effect grade (barnyard grass [4]; [25]): 0 (Herbicidal rate of 5% or less (almost no effect)) | I: wild oat, herbicidal effect grade (wild oat [5]; [25]): 0 (Herbicidal rate of 5% or less (almost no effect)) | J: blackgrass, herbicidal effect grade (blackgrass [6]; [25]): 0 (Herbicidal rate of 5% or less (almost no effect)) | K: Italian ryegrass, herbicidal effect grade (Italian ryegrass [7]; [25]): 0 (Herbicidal rate of 5% or less (almost no effect)) | L: windgrass, herbicidal effect grade (windgrass; [25]): 0 (Herbicidal rate of 5% or less (almost no effect)) | M: velvetleaf, herbicidal effect grade (velvetleaf [8]; [25]): 3 (Herbicidal rate of 40% or more and less than 70%) | N: redroot pigweed, herbicidal effect grade (redroot pigweed [9]; [25]): 4 (Herbicidal rate of 70% or more and less than 90%) | O: lambsquarters, herbicidal effect grade (lambsquarters [10]; [25]): 3 (Herbicidal rate of 40% or more and less than 70%) | P: chickweed, herbicidal effect grade (chickweed [11]; [25]): 3 (Herbicidal rate of 40% or more and less than 70%) | R: persian speedwell, herbicidal effect grade (persian speedwell [12]; [25]): 3 (Herbicidal rate of 40% or more and less than 70%) | Herbicidal effect by foliage application, F: southern crabgrass (southern crabgrass [13]; [25]): 4 (Herbicidal rate of 70% or more and less than 90%) | Herbicidal effect by foliage application, G: green foxtail (green foxtail [14]; [25]): 5 (Herbicidal rate of 90% or more (almost completely withered)) | Herbicidal effect by foliage application, H: barnyard grass (barnyard grass [15]; [25]): 3 (Herbicidal rate of 40% or more and less than 70%) | Herbicidal effect by foliage application, I: wild oat (wild oat [16]; [25]): 0 (Herbicidal rate of 5% or less (almost no effect)) | Herbicidal effect by foliage application, J: blackgrass (blackgrass [17]; [25]): 1 (Herbicidal rate of 5% or more and less than 20%) | Herbicidal effect by foliage application, K: Italian ryegrass (Italian ryegrass [18]; [25]): 0 (Herbicidal rate of 5% or less (almost no effect)) | Herbicidal effect by foliage application, M: velvetleaf (velvetleaf [19]; [25]): 5 (Herbicidal rate of 90% or more (almost completely withered)) | Herbicidal effect by foliage application, N: redroot pigweed (redroot pigweed [20]; [25]): 5 (Herbicidal rate of 90% or more (almost completely withered)) | Herbicidal effect by foliage application, P: chickweed (chickweed [22]; [25]): 5 (Herbicidal rate of 90% or more (almost completely withered)) | Herbicidal effect by foliage application, R: persian speedwell (persian speedwell [23]; [25]): 4 (Herbicidal rate of 70% or more and less than 90%)
